Measurements as given in PubChem BioAssay AID977607 (Broad Institute, 2014).
Active and inactive are the calls of the source.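 Rule for the calls: active = curve reaches 40% activation over neutral controls at an AC40 no higher than the top valid tested concentration; inconclusive = no clear call, values can overlap the other calls; inactive = signal moving opposite to the expected increase, and the rest.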

System: INS-1E GLuc insulin secretion reporter, luminescence, 2-3 h
Test: activators of glucose-dependent insulin secretion, dose response, cell-based, INS-1E, Gaussia luciferase, luminescence, cherry-pick, set 2 (AID 977607)

SMILES | AC40
FC(F)(F)c1cc(CCN2CCNC[C@@H]2CC2CCCCC2)cc(C(F)(F)F)c1 | 5.27 µM
COc1ccc(-c2nnc3sc(-c4cccs4)nn23)cc1OC | 22 µM
Cc1ccc(C)c(OCC(=O)Nc2nonc2NC(=O)COc2cc(C)ccc2C)c1 | 5.44 µM
O=C(CC1c2ccccc2Oc2ccccc21)Nc1ccccc1C(F)(F)F | 6.13 µM
Cc1ccc(OCC(=O)NC(=S)Nc2cccc(NC(=O)c3ccccc3)c2)cc1 | 11.3 µM
CN(C)CCNC(=O)c1cc2c(s1)-c1ccc(Cl)cc1SC2 | 6.54 µM
COc1ccc(CCNC(=O)NS(=O)(=O)c2ccc(C)cc2)cc1OC | > 35 µM (inactive)
CN(C)CCOc1ccc(-c2c(-c3ccccc3)sc3ccccc23)cc1 | 2.75 µM
COC(=O)C1=C(C)N(Cc2cccc(C(F)(F)F)c2)C(=NCc2ccccc2)NC1c1ccc(Cl)cc1 (stereo not given) | 11.6 µM
N#CCc1nn(-c2ccccc2)c2ncnc(N)c12 | 11.9 µM
CCOC(=O)c1oc2cc(O)cc(C)c2c1C | 15.1 µM
CCC1OC(C2CC2)CC2=C1C(=O)OC(C)(C)O2 (stereo not given) | 4.79 µM
COc1ccccc1NC(=O)N1CCCCN2[C@@H](CO)[C@@H](c3ccc(C#CC4CCCC4)cc3)[C@@H]2C1 | 16.5 µM
CC(C)(C)c1nc2ccc(Cl)cn2c1CC1CCCCC1 | 16 µM
O=c1c2cc(F)ccc2sn1-c1ccccc1Cl | 1.85 µM
COc1ccc(S(=O)(=O)Nc2ccccc2OC)cc1N=Nc1c(O)[nH]c(=S)[nH]c1=O | 16.4 µM
NC1=NC[C@H](CC2CCCCC2)N1CCc1cc(C(F)(F)F)cc(C(F)(F)F)c1 | 16.6 µM
COc1ccc(/C=N/NC(=O)c2ccc(COc3ccccc3Cl)o2)c(OC)c1C | 5.44 µM
COC(=O)c1ccc(OC)c(OC2CCCC2)c1 | 0.254 µM
CCOc1ncccc1C(=O)Nc1ccc(S(=O)(=O)Nc2nccs2)cc1 | 3.21 µM
COc1cc2ccc(CC(=O)O)cc2cc1OC | 2.69 µM
CS(=O)(=O)c1cnc(-c2ccccc2)nc1Oc1ccc(F)cc1 | 15.1 µM
COc1ccc(C(O)c2nc(-c3ccc(OC)c(OC)c3)cs2)cc1 (stereo not given) | > 35 µM (inactive)

SMILES | AC40
Cc1ccccc1C(=O)Nc1nnc(-c2ccc(C(C)(C)C)cc2)s1 | 18.3 µM
CC(NCC(O)COCCC12CC3CC(CC(C3)C1)C2)c1ccccc1 (stereo not given) | 14.9 µM
CCOC(=O)c1c(-n2cnnn2)sc2c1CCCC2 | 14.6 µM
Cc1ccc(-n2sc3cc(F)ccc3c2=O)c(C)c1 | 1.94 µM
COc1ccccc1CCn1cnc(-c2cccc(F)c2)c1C(C)C | 14 µM
COc1ccc(-c2ccc(SCc3cccnc3)nn2)cc1OC | 0.451 µM
COc1ccccc1C(=O)NC(=S)NC12CC3CC(CC(C3)C1)C2 | 7.9 µM
Cc1nnn(-c2nonc2N)c1C(=O)N/N=C/c1cccc2ccccc12 | 7.29 µM
O=C(NC(=S)Nc1ccc(NC(=O)c2cccs2)cc1)c1cc2ccccc2o1 | 14.3 µM
O=C(N/N=C/c1ccc(Cl)cc1Cl)Nc1ccccc1 | 7.74 µM
CC1(C(=O)NS(=O)(=O)c2ccc(Cl)s2)CCN1C(=O)C1(c2ccc(Cl)cc2)CCC1 (stereo not given) | > 35 µM (inactive)
COc1ccc(Cc2nnc(NC(=O)Cc3cccs3)s2)cc1OC | 0.234 µM
Cc1nn(-c2ccccc2)c2c1C(O)CC(C)(C)C2 (stereo not given) | 3.51 µM
CCOC(=O)c1c(C)n(-c2ccc(C)cc2)c2ccc(OCC(O)CN3CCN(C)CC3)cc12 (stereo not given) | 12.3 µM
CC(C)(C)c1ccc(-c2cc(-c3ccccc3O)[nH]n2)cc1 | 6.61 µM
Cc1cccc(C(C)C)c1NC(=O)COC(=O)c1cccc(S(=O)(=O)N2CCc3ccccc3C2)c1 | 10.9 µM
COc1ccc(-c2nnn(Cc3nc(N)nc(N4CCOCC4)n3)n2)cc1OC | 1.67 µM
Fc1ccc(-c2cc(C(F)(F)F)nc(-n3cncn3)n2)cc1 | 0.52 µM
Cc1ccc(NC(=O)c2ccc(COc3ccc4c(c3)CCC4)cc2)c(C)c1 | 1.27 µM
Cc1ccccc1NC(=O)c1ccc(OCc2c(C)noc2C)cc1 | > 35 µM (inactive)
O=C(c1ccc(F)cc1)N1C[C@@H]2N[C@H](C1)C2c1ccc(/C=C/c2ccccc2)cc1 (stereo not given in full) | 6.56 µM
Cc1cccc(-c2ccc(C3[C@@H]4CN(C(=O)C5CCCCC5)C[C@H]3N4)cc2)c1 (stereo not given in full) | 18.5 µM
